# Measured values taken from patent US10544138B2, “Tricyclic kinase inhibitors of MELK and methods of use” (Dana-Farber Cancer Institute, Inc., priority 2015, dated 2020).
# Target: T1, MELK (Homo sapiens, UniProt Q14680)
# Assay: Electrophoretic mobility (auto-phosphorylation) of MELK in nocodazole-arrested mitotic cells, immunoblotting
# Assay type: cell-based
# Conditions: nocodazole-arrested mitotic cells (HeLa, MDA-MB-231), 30 min, increasing concentration
# Protocol: […] assays were performed with recombinant protein of the indicated mitotic kinase (left) and AMPK family kinases (right) in the presence of THZ-4-63-1. […] Cells were treated with nocodazole (100 ng/ml) for 18 h or not treated (Asyn., asynchronous). Nocodazole-arrested mitotic cells (M) were isolated via shake-off. The attached cells enriched in G2 phase (G2) were harvested. A portion of the mitotic cells were washed off nocodazole and released into G1 phase after 4 hours of incubation (G1). […] In Panel D, mitotic lysates were prepared from the indicated cells, and treated with λ-phosphatase at 30° C. In Panel E, nocodazole-arrested mitotic cells were treated with increasing concentration of THZ-4-63-1 for 30 min. Cell lysates were subjected to immunoblotting.
# (§1) Cell lysates were subjected to immunoblotting. […] The fluorescent signals of immunblotting were quantified using Image Studio Lite software (Licor Biosciences, Lincoln, Neb.). The signal of phosphorylated Aurora kinases was normalized to that of loading control (α-tubulin).
# (§2) We next proceeded to test if THZ-4-63-1 inhibits MELK activity in vivo. With a lack of established kinase substrates of MELK during mitosis, we used the auto-phosphorylation of MELK as a surrogate to indicate the activity of MELK. […] We then harvested nocodazole-arrested mitotic cells, and treated cells with increasing concentrations of THZ-4-63-1.
# T1 sequence (Q14680 whole entry): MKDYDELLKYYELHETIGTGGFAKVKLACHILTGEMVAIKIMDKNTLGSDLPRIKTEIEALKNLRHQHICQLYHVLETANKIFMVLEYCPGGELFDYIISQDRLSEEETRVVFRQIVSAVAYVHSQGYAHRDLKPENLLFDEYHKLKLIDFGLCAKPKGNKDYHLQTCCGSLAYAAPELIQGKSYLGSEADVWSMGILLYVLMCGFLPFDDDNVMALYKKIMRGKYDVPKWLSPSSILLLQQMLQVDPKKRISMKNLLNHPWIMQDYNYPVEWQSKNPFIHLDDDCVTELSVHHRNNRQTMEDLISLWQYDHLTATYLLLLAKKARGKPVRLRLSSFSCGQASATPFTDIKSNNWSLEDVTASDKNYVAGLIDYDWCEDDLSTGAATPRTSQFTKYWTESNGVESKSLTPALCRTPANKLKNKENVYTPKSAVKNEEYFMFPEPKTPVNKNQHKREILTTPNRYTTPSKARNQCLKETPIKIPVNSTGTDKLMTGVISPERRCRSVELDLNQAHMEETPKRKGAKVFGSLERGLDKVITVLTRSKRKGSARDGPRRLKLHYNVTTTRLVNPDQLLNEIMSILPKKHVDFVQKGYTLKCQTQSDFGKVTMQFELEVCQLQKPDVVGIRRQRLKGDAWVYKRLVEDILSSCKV
row,SMILES,Electrophoretic mobility of mitotic MELK
1,"O=C1NC(=NCc2cccs2)S/C1=C\c1ccc2ncccc2c1 [RO-3306, reference compound]",does not change the electrophoretic mobility of MELK
2,"O=C(O)c1ccc(Nc2ncc3c(n2)-c2ccc(Cl)cc2C(c2c(F)cccc2F)=NC3)cc1 [MLN8054, reference compound]",does not alter the electrophoretic mobility of MELK

# Tested on: Aurora kinases
# Assay: Aurora kinase phosphorylation in mitotic cells, immunoblotting
# Assay type: cell-based
# Conditions: 30 min
# Protocol: as §1
# Cell lysates were prepared for immunoblotting. In Panels B and C, THZ-4-63-1 inhibits H3T3 phosphorylation in HeLa (B) and U2OS (C) cells. Nocodazole arrested mitotic cells were treated with THZ-4-63-1 at the indicated doses for 30 min. […] Cell lysates were subjected to immunblotting. The signal of H3T3 phosphorylation was normalized to that of α-tubulin (right).
# as §2
# We exposed paclitaxel- or nocodazole-arrested mitotic cells to the individual inhibitor for 30 min in the presence of MG132, and collected lysates for examining signaling involved in chromosome alignment. […] Recent studies unravel a novel role of Aurora B in phosphorylating Haspin^7, a major factor responsible for phosphorylating Histone H3 at Thr3^14. […]
row,SMILES,Phosphorylation of Aurora kinases
1,"Cc1cc(Nc2cc(N3CCN(C)CC3)nc(Sc3ccc(NC(=O)C4CC4)cc3)n2)n[nH]1 [VX-680, reference compound]",efficiently suppressed the auto-phosphorylation of Aurora kinases

# Tested on: Histone H3 phosphorylation at Thr3
# Assay: Histone H3 Thr3 phosphorylation in arrested mitotic cells, immunoblotting
# Assay type: cell-based
# Conditions: paclitaxel- or nocodazole-arrested mitotic cells, 30 min, with MG132
# Protocol: Cell lysates were prepared for immunoblotting. […] HeLa cells were treated with DMSO or THZ-4-63-1 (5 μM) for 4 h followed by 1 h treatment of MG132 (10 μM). Cells were fixed and stained with anti-H3T3ph and anti-CREST. […] Cells were treated as in FIG. 2, Panel D, and additionally treated with MG132 (10 μM) for 1 h before fixation. The histogram indicates the quantification of H3S10ph signal. […] MCF-10A cells stably expressing empty vector (EV) or MELK were fixed for immunostaining. Images were captured with identical exposure time. H3T3ph intensity was quantified by the use of ImageJ. […] Recombinant MELK protein (kinase domain) was incubated with recombinant Histone H3 for 30 min at 30° C. Samples were subjected to immunoblotting using the indicated antibodies. […] Cells stably expressing GFP-MELK were fixed by formaldehyde and stained with anti-H3S10ph. […] Asynchronized (Async.) or nocodazole-arrested mitotic cells were subjected to fractionation, with sample prepared for immunoblotting. Panels H and I are images showing that MELK inhibition impairs the localization of chromosome passenger complex (CPC), indicated by the immunofluorescence detecting Survivin (G) and Aurora B (H). In addition to the presence of doxycyclin or THZ-4-63-1, cells were treated with nocodazole (0.33 μM) and MG132 (10 μM) for 3 h before fixation.
# Cell lysates were prepared for immunoblotting. […]
row,SMILES,Histone H3 phosphorylation at Thr3
1,"Cc1cc(Nc2cc(N3CCN(C)CC3)nc(Sc3ccc(NC(=O)C4CC4)cc3)n2)n[nH]1 [VX-680, reference compound]",inhibition of the downstream Histone H3 phosphorylation at Thr3

# Tested on: MDA-MB-468
# Assay: Cell growth with paclitaxel combination in MDA-MB-468
# Assay type: cell-based, human
# Conditions: 2 nM
# Protocol: Mitotic cells were treated with THZ-4-63-1 at indicated concentrations for 4 h. Cells were collected for immunoblotting. Panel B contains time-lapse images of U2OS-(H2B-GFP) cells treated with THZ-4-63-1 (5 μM). […] Panel C contains blots showing proteasome-mediated degradation of Cyclin B1, Aurora B and MELK in THZ-4-63-1-induced mitotic slippage. Mitotic cells were treated as in Panel A with THZ-4-63-1 (5 μM), or MG132 (10 μM), or both for 4 h. Panel D contains a graph showing quantification of cell proliferation in the indicated breast cancer cell lines, which were treated with vehicle control or THZ-4-63-1 for one week (Top) and also contains bright-field images acquired from control cells or cells treated with THZ-4-63-1 (111 nM) (Bottom). […] Cells were treated with indicated drugs, and harvested in ten days for quantification of cell growth. The bold curve depicts the theoretic prediction of an additive action between paclitaxel and THZ-4-63-1.
# Because microtubule-targeting chemotherapy is the mainstay of treatment for many types of cancer including basal-like breast cancer, we asked if MELK inhibition could combine with drugs that impair microtubule dynamics. […]
row,SMILES,"Reduction of cell proliferation, paclitaxel alone"
1,"CC(=O)O[C@H]1C(=O)[C@@]2(C)[C@H]([C@H](OC(=O)c3ccccc3)[C@]3(O)C[C@H](OC(=O)[C@H](O)[C@@H](NC(=O)c4ccccc4)c4ccccc4)C(C)=C1C3(C)C)[C@]1(OC(C)=O)CO[C@@H]1C[C@@H]2O [paclitaxel, reference compound]",half reduction

# Target: T1, MELK
# Assay: Z′-LYTE biochemical assay, MELK inhibition
# Parameters: purchased Life Technologies
# Conditions: 25 uM ATP concentration; read-out: MELK IC50 as determined by Z′-LYTE biochemical assay
# Protocol: The invention also provides methods for inhibiting MELK, comprising contacting MELK with a compound of the invention in an amount effective to inhibit MELK. In certain embodiments, the method is conducted in vitro. In certain embodiments, the method is conducted in vivo. Inhibition of MELK can be determined by the Z′-LYTE® biochemical assay from Life Technologies (Life Technologies Z′-LYTE® Screening Protocol and Assay Conditions, June 2012, incorporated herein by reference).
# Generally, IC50 against MELK was determined by Z′-LYTE® biochemical assay and are measured in nM at 25 uM ATP concentration.
row,IC50 [nM],SMILES
1,27.1,"CN(C)C[C@H]1CC[C@H](N2C(=O)N(C)Cc3cnc4ccc(-c5cc(Cl)c(O)c(Cl)c5)cc4c32)CC1 [Compound 02-095, 9-(3,5-dichloro-4-hydroxyphenyl)-1-(trans-4-((dimethylamino)methyl)cyclohexyl)-3-methyl-3,4-dihydropyrimido[5,4-c]quinolin-2(1H)-one]"
2,2.8,CN(C)C[C@H]1CC[C@H](N2C(=O)N(C)Cc3cnc4ccc(-c5cc(Cl)c(O)c(Cl)c5)nc4c32)CC1 [Compound 02-096]
3,404,CN(C)CC1CCC(CN2C(=O)NCc3cnc4ccc(-c5cc(Cl)c(O)c(Cl)c5)cc4c32)CC1 (stereo not drawn) [Compound 02-020]
4,1.85,"CN(C)C[C@H]1CC[C@H](n2c(=O)[nH]c3cnc4ccc(-c5cc(Cl)c(O)c(Cl)c5)cc4c32)CC1 [Compound 02-022, 8-(3,5-dichloro-4-hydroxyphenyl)-1-(trans-4-((dimethylamino)methyl)cyclohexyl)-1,3-dihydro-2H-imidazo[4,5-c]quinolin-2-one]"
5,386,CN1CCC(CN2C(=O)NCc3cnc4ccc(-c5cc(Cl)c(O)c(Cl)c5)cc4c32)CC1 [Compound 02-029]
6,2.16,"CN(C)C[C@H]1CC[C@H](n2c(=O)n(C)c3cnc4ccc(-c5cc(Cl)c(O)c(Cl)c5)cc4c32)CC1 [Compound 02-084, 8-(3,5-dichloro-4-hydroxyphenyl)-1-(trans-4-((dimethylamino)methyl)cyclohexyl)-3-methyl-1,3-dihydro-2H-imidazo[4,5-c]quinolin-2-one]"

# Continued, compound first:
row,SMILES,IC50 [nM]
1,O=c1ccc2cnc3ccc(-c4cc(Cl)c(O)c(Cl)c4)cc3c2n1-c1ccc(N2CCNCC2)c(C(F)(F)F)c1 [Compound 01-045],7.63
2,CC(=O)N1CCN(c2ccc(-n3c(=O)ccc4cnc5ccc(-c6cc(Cl)c(O)c(Cl)c6)cc5c43)cc2C(F)(F)F)CC1 [Compound 01-071],294
3,"CN(C)C[C@H]1CC[C@H](n2c(=O)ccc3cnc4ccc(-c5cc(Cl)c(O)c(Cl)c5)cc4c32)CC1 [Compound 01-087, 9-(3,5-dichloro-4-hydroxyphenyl)-1-(trans-4-((dimethylamino)methyl)cyclohexyl)benzo-[h][1,6]naphthyridin-2(1H)-one]",9.6
4,"CN(C)C[C@H]1CC[C@H](N2C(=O)NCc3cnc4ccc(-c5cc(Cl)c(O)c(Cl)c5)cc4c32)CC1 [Compound 01-091, 9-(3,5-dichloro-4-hydroxyphenyl)-1-(trans-4-((dimethylamino)methyl)cyclohexyl)-3,4-dihydropyrimido[5,4-c]quinolin-2(1H)-one]",10.5
5,O=C1NCc2cnc3ccc(-c4cc(Cl)c(O)c(Cl)c4)cc3c2N1c1ccc(N2CCNCC2)cc1 [Compound 01-100],2.16
6,CN(C)Cc1ccc(N2C(=O)NCc3cnc4ccc(-c5cc(Cl)c(O)c(Cl)c5)cc4c32)cc1 [Compound 01-144],9.4
7,CN(C)C[C@H]1CC[C@H](N2C(=O)NCc3cnc4ccc(-c5ccc(NS(C)(=O)=O)cc5)cc4c32)CC1 [Compound 01-131],4990
8,O=c1ccc2cnc3ccc(-c4cccc(O)c4)cc3c2n1-c1ccc(N2CCNCC2)c(C(F)(F)F)c1 [Compound 01-092],146
9,O=C1NCc2cnc3ccc(-c4cc(Cl)c(O)c(Cl)c4)cc3c2N1c1ccc(N2CCNCC2)c(C(F)(F)F)c1 [Compound 01-088],5.48
10,O=c1ccc2cnc3ccc(-c4ccc(CO)cc4)cc3c2n1-c1ccc(N2CCNCC2)c(C(F)(F)F)c1 [Compound 01-101],119
